Test results: patent US20110105515A1, “TARGETING THE ONCOPROTEIN NUCLEOPHOSMIN” (President and Fellows of Harvard College, priority 2007, published 2011)
Entries after “also recorded” stand apart in the source; their conditions may differ.

Assays:
exportin-1 (XPO1) = target: T1, exportin-1 (XPO1) (Homo sapiens, UniProt O14980); test: Competitive binding affinity-isolation with probe 5 in T-47D lysates, exportin-1; details: 10 μM probe 5, 100 μM inhibitor
T1 construct: endogenous in cells; host or cells: T-47D lysate
Text: (§1) The supernatant was discarded.
(§2) See above for solution preparation.

peroxiredoxin 1 (PRX1) = target: T2, peroxiredoxin 1 (PRX1) (Homo sapiens, UniProt Q06830); test: Competitive binding affinity-isolation with probe 5 in T-47D lysates, peroxiredoxin 1; details: 10 μM probe 5, 100 μM inhibitor
T2 construct: endogenous in cells; host or cells: T-47D lysate
Text: as §1, §2

nucleophosmin [1] = target: T3, nucleophosmin (Homo sapiens, UniProt P06748); test: Competitive binding affinity-isolation with probe 5 in T-47D lysates, nucleophosmin; details: for inhibition of binding of nucleophosmin to probe 5 by analogues (FIG. 4): T-47D nuclear-enriched lysate
T-47D cells = test: Antiproliferative assay (CellTiter-Blue), T-47D cells; assay type: cell-based, human; details: 72-h incubation
Protocol: G. Antiproliferative Assays. […] The cell suspension was diluted to 1.0×10^5 cells/mL. A multichannel pipette was used to load the wells of a 96-well plate with 100 μL per well of the diluted cell suspension. […] The following day, 100-μg portions of the nitrone samples were removed from the freezer, thawed, and dissolved in filter-sterilized DMSO to a concentration of 5 mM. A 6.5-μL aliquot of the nitrone solution was dissolved in 643.5 μL of medium to achieve a working concentration of 50 μM. Serial dilutions were employed to generate a range of different concentrations for analysis. Finally, 100-μL aliquots of this diluted nitrone solution were added to the wells containing adhered cells, resulting in final assay concentrations of up to 25 μM. The treated cells were incubated for 72 h at 37° C. (5% CO2). To each well was added 20 μL of CellTiter-Blue reagent, and the samples were returned to the incubator. Fluorescence (560 nm excitation/590 nm emission) was recorded on a 96-well plate reader following a 4.0-h incubation period (37° C., 5% CO2). Percent growth inhibition was calculated for each well, based upon the following formula: Percent growth inhibition=100×(S−B0)/(Bt−B0); where S is the sample reading, Bt is the average reading for a vehicle-treated population of cells at the completion of the assay, and B0 is the average reading for an untreated population of cells at the beginning of the assay. Each analogue was run a minimum of eight times, over a period of at least two weeks. For each compound, 14 separate concentrations were used in the assay, ranging from 25 μM to 8 nM. The average inhibition at each concentration was plotted against concentration, and a curve fit was generated. […] Final GI50 values reflect the concentrations at which the resulting curves pass through 50 percent inhibition.
The cell suspension was diluted to 1.0×10^5 cells/mL. A multichannel pipette was used to charge the wells of a 96-well plate with 100 μL per well of the diluted cell suspension.
The following day, a 6.5-μL aliquot of nitrone solution, at 5 mM in DMSO, was diluted in 643.5 μL of medium to achieve a working concentration of 50 μM. Serial dilutions were employed to generate a range of different concentrations for analysis. Finally, 100-μL aliquots of the diluted nitrone solutions were added to the wells containing adhered cells, resulting in final assay concentrations of up to 25 μM.
The treated cells were incubated for 72 h at 37° C. (5% CO2). To each well was added 20 μL of CellTiter-Blue reagent, and the samples were returned to the incubator. Fluorescence (560 nm excitation/590 nm emission) was recorded on a 96-well plate reader following a 4.0 h incubation period (37° C., 5% CO2).
Percent growth inhibition was calculated for each well, based upon the following formula:
Percent growth inhibition=100×(S−B0)/(Bt−B0)
where S is the sample reading, Bt is the average reading for a vehicle-treated population of cells at the completion of the assay, and B0 is the average reading for an untreated population of cells at the beginning of the assay.

nucleophosmin [2] = target: T3, nucleophosmin; test: Affinity-isolation following co-incubation with iodoacetamide; assay type: binding; design: endogenous in cells; host or cells: T-47D (live cells, whole-cell lysate, nuclear-enriched lysate); details: 10 μM probe 5, 10 mM iodoacetamide; whole cell lysate
Protocol: Identical affinity-isolation experiments to those described in the previous section were performed, except that iodoacetamide (8 μL of a freshly prepared 500 mM solution in DMSO) was added to one sample: […]

LNCaP cells = test: Antiproliferative assay (CellTiter-Blue), LNCaP cells; assay type: cell-based, human; details: 72-h incubation
Protocol: G. Antiproliferative Assays. […] The cell suspension was diluted to 1.0×10^5 cells/mL. A multichannel pipette was used to load the wells of a 96-well plate with 100 μL per well of the diluted cell suspension. […] The following day, 100-μg portions of the nitrone samples were removed from the freezer, thawed, and dissolved in filter-sterilized DMSO to a concentration of 5 mM. A 6.5-μL aliquot of the nitrone solution was dissolved in 643.5 μL of medium to achieve a working concentration of 50 μM. Serial dilutions were employed to generate a range of different concentrations for analysis. […] Fluorescence (560 nm excitation/590 nm emission) was recorded on a 96-well plate reader following a 4.0-h incubation period (37° C., 5% CO2). Percent growth inhibition was calculated for each well, based upon the following formula: Percent growth inhibition=100×(S−B0)/(Bt−B0); where S is the sample reading, Bt is the average reading for a vehicle-treated population of cells at the completion of the assay, and B0 is the average reading for an untreated population of cells at the beginning of the assay. […]
The treated cells were incubated for 72 h at 37° C. […] Fluorescence (560 nm excitation/590 nm emission) was recorded on a 96-well plate reader following a 4.0 h incubation period (37° C., 5% CO2).
Percent growth inhibition was calculated for each well, based upon the following formula: […]

proteins of T-47D cells = test: Affinity-isolation from T-47D cells, LC-MS/MS analysis of proteins; details: narrower region of the gel; equal concentrations
nucleophosmin [3] = target: T3, nucleophosmin; test: Titration of probe 5-nucleophosmin binding in T-47D whole cell lysate; design: endogenous in cells; host or cells: T-47D (live cells, whole-cell lysate, nuclear-enriched lysate); details: whole-cell lysates of T-47D cells
Protocol: as §1
A 1-mL aliquot of T-47D whole cell lysate was thawed at 4° C. and diluted with 4 mL wash buffer, to afford a working lysate of 1.5 mg/mL total protein.

[4] = target: NPM1.3 (nucleophosmin isoform) (Homo sapiens, UniProt P06748, C275A); test: Affinity-isolation of NPM1.3 cysteine to alanine mutants expressed in COS-7 cells with probe 5; details: 1 μM probe 5, COS-7 cell lysates
[5] = test system: NPM1.3 (nucleophosmin isoform); test: as above; details: 1 μM probe 5, COS-7 cell lysates
nucleophosmin [6] = target: T3, nucleophosmin; test: Affinity-isolation from incubations with live T-47D cells, Western-blot detection of nucleophosmin; assay type: binding; design: endogenous in cells; host or cells: T-47D (live cells, whole-cell lysate, nuclear-enriched lysate); details: 3 μM 5 versus 9 μM 3, 90 min
Protocol: To identify potential binding proteins, populations of healthy (adherent) T-47D cells were treated with the newly synthesized biotin conjugate 5 or the structurally simpler biotin-containing probe 3, previously studied. As a control, a separate population of cells was treated with the biotin derivative 7, which lacks the unsaturated nitrone function. The treated cells were incubated with probe or control for 90 min at 37° C., then were harvested, washed and lysed. The individual lysates were exposed to an agarose resin to remove nonspecific binding proteins. After centrifugation, the supernatants were then exposed to a streptavidin-agarose resin. This resin was collected by centrifugation and washed. Bound proteins were released by heat-denaturation, separated by SDS-PAGE, and analyzed by LC-MS/MS and Western-blot.
The lysates were transferred to fresh 1.7-mL centrifuge tubes. Each individual sample lysate was treated with 50 μL of washed, well-suspended, two-fold diluted Sepharose resin. […] The supernatant was transferred to a clean 1.7-mL centrifuge tube.
as §1

[7] = test system: MALME-3M and MALME-3 cells; test: Selectivity assay, malignant melanoma MALME-3M versus fibroblast MALME-3; assay type: cell-based; details: MALME-3M versus MALME-3
Protocol: […]. A cell line from a healthy fibroblast from the same patient has also been deposited with the American Type Cell Culture Corporation (ATCC). Fresh stockes of both MALME-3M and MALME-3 from ATCC. Avrainvillamide was test against the two cells lines at the same time, taking all possible precautions to ensure that both sets of samples were treated identically. […] As a measure of cytotoxicity and antiproliferative activity, we calculated both LC50 and LC25 (as an estimate of GI50).
The 9.7-fold selectivity at 25 percent cell death is representative of at least a modest degree of selectivity. For comparison, cytochalsine B and geldanamycin were analyzed in identical experiments. Cytochalasine B is a non-selective cytotoxic agent for which a selectivity factor of 0.2 at 25 percent cell death was observed. Geldanamycin is known to be a potent, selective inhibitor of tumor cell growth for which a selectivity factor of >100 at 25 percent cell death was observed.

Structure (SMILES): CC1(C)C=Cc2c(ccc3c2[N+]([O-])=C2C3=C[C@@]34NC(=O)[C@]5(CCCN5C3=O)C[C@H]4C2(C)C)O1 (single isomer, unassigned; ent-1) [ent-1, (−)-avrainvillamide]
- blocking of the binding of probe 5 to exportin-1 (XPO1) (exportin-1 (XPO1)): capable of blocking
- blocking of the binding of probe 5 to peroxiredoxin 1 (PRX1) (peroxiredoxin 1 (PRX1)): capable of blocking
- binding of nucleophosmin to probe 5 in the presence of a 10-fold higher concentration of competitor (nucleophosmin [1]; 10 μM probe 5, 100 μM competitor, nuclear-enriched and whole-cell T-47D lysates): not diminished
- concentration required for inhibition of probe 5-nucleophosmin binding (nucleophosmin [1]; T-47D lysate): 500 µM
- fold higher concentration versus 1 required for inhibition of probe 5-nucleophosmin binding (nucleophosmin [1]; T-47D lysate): ~5 fold
- fold less potent than (+)-1 as inhibitor of T-47D cell growth (T-47D cells): ~3 fold

Structure (SMILES): NC(=O)CI [iodoacetamide]
- binding of nucleophosmin to probe 5 in the presence of a 1000-fold excess (nucleophosmin [2]): substantially reduced

Structure (SMILES): COCCCCCCCCCCNS(=O)(=O)c1cccc2c(N(C)C)cccc12 [compound 6, reference compound]
- inhibition of the growth of LNCaP cells (antiproliferative potency, in words) (LNCaP cells): inactive
- inhibition of the growth of T-47D cells (antiproliferative potency, in words) (T-47D cells): inactive

Structure (SMILES): CC1(C/C=C/CCCCCCCCOC(=O)CCCC[C@@H]2SC[C@@H]3NC(=O)N[C@@H]32)C=Cc2c(ccc3c2[N+]([O-])=C2C3=C[C@@]34NC(=O)C5(CCCN5C3=O)CC4C2(C)C)O1 (some centres unmarked) [compound 5]
- inhibition of the growth of LNCaP cells (antiproliferative potency, in words) (LNCaP cells): somewhat less potent than the dansyl conjugate (4)
- detection of nucleophosmin by LC-MS/MS after affinity isolation (proteins of T-47D cells): detected
- concentration of probe sufficient to afford detectable levels of nucleophosmin (nucleophosmin [3]): 100 to 500 nM
- inhibition of the growth of T-47D cells (antiproliferative potency, in words) (T-47D cells): potencies similar to the natural product
- inhibition of the growth of T-47D cells (antiproliferative potency, in words) (T-47D cells; listed as biotin-avrainvillamide conjugate): nearly equipotent to (+)-avrainvillamide
- effect of deletion of cys275 on affinity-isolation of NPM1.3 [4]: greatly reduced
- effect of deletion of cys21 or cys104 on affinity-isolation of NPM1.3 [5]: little effect
- affinity-isolation of nucleophosmin by biotinylated probe (Western-blot) (nucleophosmin [6]): more effectively bound nucleophosmin; also recorded: selectively bind

Structure (SMILES): COC1=C2C[C@@H](C)C[C@H](OC)[C@H](O)[C@@H](C)/C=C(\C)[C@H](OC(N)=O)[C@@H](OC)/C=C\C=C(/C)C(=O)NC(=CC1=O)C2=O [Geldanamycin, reference compound]
- selectivity factor, melanoma cells relative to fibroblast control (LC25, 25 percent cell death, estimate of GI50) [7]: > 100

Structure (SMILES): CN(C)c1cccc2c(S(=O)(=O)NCCCCCCCCCCOc3ccc4c(c3)[N+]([O-])=C3C4=C[C@@]45NC(=O)C6(CCCN6C4=O)CC5C3(C)C)cccc12 (some centres unmarked) [compound 4]
- inhibition of the growth of T-47D cells (antiproliferative potency, in words) (T-47D cells): potencies similar to the natural product

Structure (SMILES): CC1(C)C2=[N+]([O-])c3cc(C#Cc4ccccc4)ccc3C2=C[C@@]23NC(=O)C4(CCCN4C2=O)CC13 (some centres unmarked) [compound 10]
- inhibition of binding of nucleophosmin to probe 5 by analogues (FIG. 4) (nucleophosmin [1]): least effectively inhibited

Structure (SMILES): CC1(C)C2=[N+]([O-])c3ccc(-c4ccccc4)cc3C2=C[C@@]23NC(=O)C4(CCCN4C2=O)CC13 (some centres unmarked) [compound 9]
- inhibition of binding of nucleophosmin to probe 5 by analogues (FIG. 4) (nucleophosmin [1]): only partially inhibited
- fold less potent than (+)-1 as inhibitor of T-47D cell growth (T-47D cells): 3 fold

Structure (SMILES): CC1(C)C2=[N+]([O-])c3cc(-c4ccccc4)ccc3C2=C[C@@]23NC(=O)C4(CCCN4C2=O)CC13 (some centres unmarked) [compound 8]
- inhibition of binding of nucleophosmin to probe 5 by analogues (FIG. 4) (nucleophosmin [1]): inhibited essentially equivalently
- inhibition of the growth of T-47D cells (antiproliferative potency, in words) (T-47D cells): nearly as potent as avrainvillamide

Structure (SMILES): C=C1[C@@H](C)[C@H]2[C@H](Cc3ccccc3)NC(=O)[C@]23OC(=O)/C=C/[C@H](O)CCC[C@@H](C)C/C=C/[C@H]3[C@@H]1O [Cytochalasine B, reference compound]
- selectivity factor, melanoma cells relative to fibroblast control (LC25, 25 percent cell death, estimate of GI50) [7]: 0.2

Structure (SMILES): CC1(C)C2=[N+]([O-])c3c(cccc3-c3ccccc3)C2=C[C@@]23NC(=O)C4(CCCN4C2=O)CC13 (some centres unmarked) [compound 11]
- inhibition of binding of nucleophosmin to probe 5 by analogues (FIG. 4) (nucleophosmin [1]): least effectively inhibited
